# Measurements: patent US20250064803A1, “DOSAGE REGIMENS FOR PARP7 INHIBITORS” (Ribon Therapeutics, Inc., priority 2021, published 2025)
# “And” between values parts separate entries of the source, which are not always exact repeats. Equal values may be shown once. “Also recorded” adds a separate entry of the source.
# Experiments:
# [1] = cited from earlier work
# [2] = Relative bioavailability PK of micronized vs nonmicronized 100 mg tablets in Phase 1 patients; type: in vivo, human
# Protocol: Assessments conducted after C1D1 will be the same as described for patients in the dose escalation cohorts following Schedule 2. Based on emerging PK data, additional Relative Bioavailability Cohorts at additional dose levels may be explored.
# Patients enrolled in the Relative Bioavailability Cohort(s) will have an additional visit 7 days (±3 days) prior to C1D1. […] On C1D-7 patients will be attached to a Holter monitor that will run continuously for ˜24 hours (i.e., until patients return on the following day for the 24-hr PK sample collection on C1D-6). […] On C1D1, patients will be attached to a Holter monitor that will run continuously for ˜24 hours (i.e., immediately before the study drug dose on C1D2). […] Samples collected after C1D2 are not considered part of the relative Bioavailability data set.
# Plasma samples were collected at 0.5, 1, 2, 4, 6, 8, 12 and 24 hours post dose. […] Plasma samples were collected at 0.5, 1, 2, 4, 6, 8, 12 and 24 hours post dose.
# [3] = Plasma pharmacokinetics after oral tablets and capsules in male Beagle dogs; type: in vivo; settings: for AUC / Cmax: male, Beagle, dog, plasma, po, 100 mg
# Excerpt: The objective of this study was to determine the plasma pharmacokinetic profiles of the compound of Formula I in male Beagle dogs after oral administration and to assess the exposure of tablets and capsules formulations.
# Male Beagle dogs were purchased from Jiangsu Johnsen Bioresource CO., Ltd. The animals were 1-2.5 years old on the dosing day. All animals were housed in a 12-hour light/12-hour dark cycle environment. Animals for oral (PO) groups were fasted overnight prior to dosing and were fed approximately 2 hours after dosing. This study was approved by the Pharmaron Institutional Animal Care and Use Committee.
# The compound of Formula I was used for the dose formulation and standard stock solution preparation. […] For the animals in PO groups, pentagastrin ([…], i.m.) was administrated 20 minutes before dosing PO formulation and 1.5 hours after the first pentagastrin dosing. The dosing volume was 0.024 mL/kg, the concentration was […] in DMSO/1 N NaOH/PBS. The dosing volume, detailed dosing time of pentagastrin was recorded. 10 mL of 0.001 N HCl was used to wash the gavage catheter for each animal.
# Blood samples (0.5 mL) were collected from each animal via jugular veins. These blood samples were placed into tubes containing dipotassium ethylenediaminetetraacetic acid and then centrifuged at 2000 g for 10 minutes at 4° C. to produce plasma. All samples were stored at −75±15° C. until analysis.
# Compound of Formula I was prepared in dimethyl sulfoxide with vortex at 1 mg/mL (free form) as standard stock solution. Calibration standard working solutions were prepared at concentrations of 5, 10, 20, 50, 100, 500, 1000, 5000, 10000 and 20000 ng/mL by serial dilution of the standard stock solution by 50% acetonitrile in water. […] These QC samples were prepared on the day of analysis in the same way as calibration standards.
# 5 μL of each calibration standard working solution (5, 10, 20, 50, 100, 500, 1000, 5000, 10000 and 20000 ng/mL) was added to 50 μL of blank Beagle Dog plasma to achieve calibration standards of 0.5-2000 ng/mL (0.5, 1, 2, 5, 10, 50, 100, 500, 1000, 2000 ng/mL) in a total volume of 55 μL. […] These QC samples were prepared on the day of analysis in the same way as calibration standards. 55 μL of standards, 55 μL of QC samples or 55 μL of unknown samples (50 μL of plasma sample with 5 μL 50% acetonitrile in water) were mixed with 200 μL of acetonitrile containing IS (internal standard, dexamethasone) to precipitate proteins. Then the samples were vortexed for 30 sec.
# Data Acquisition was Performed by Sciex Analyst 1.6.3 Software (AB Sciex, Forster City, CA). Pharmacokinetic parameters were calculated by non-compartmental analysis (Phoenix TM WinNonlin® 6.1). The linear trapezoidal algorithm was used for AUC calculation.
# [4] = First-in-human Phase 1 dose escalation study: treatment-related adverse events, safety; type: in vivo
# Excerpt: This protocol is a first-in-human, Phase 1, multi-center, open-label, study designed to evaluate the safety profile, including any dose-limiting toxicities (DLTs), and (maximum tolerated dose) MTD of the compound of Formula I administered as a single agent PO and establish the recommended phase 2 dose (RP2D) of the compound of Formula I. The study has a Dose Escalation Phase, which includes a relative bioavailability assessment, followed by a Dose Expansion Phase in patients with selected tumor types.
# In the Dose Escalation Phase of the study, patients with any histologically- or cytologically-confirmed solid tumor type (which may include “solid” lymphoma [e.g., mantle cell]) that is refractory to standard therapy and for whom no therapy exists that would be curative or might provide clinical benefit and therefore for whom experimental therapy is a reasonable option are eligible. In the Dose Expansion Phase of the study, the RP2D will be investigated in the following cancer types: squamous cell carcinoma of the lung (SCCL), head and neck squamous cell carcinoma (HNSCC), hormone receptor positive (HR+) breast cancer, and PARP7 amplified cancer.
# Two schedules are employed in the Dose Escalation Phase: • Schedule 1 will examine a 21-day cycle with 14 days of the compound of Formula I administered at doses of 25 mg, 50 mg, 100 mg, 200 mg, 300 mg, and 500 mg BID followed by a rest period. • Schedule 2 will examine a 21-day continuous dosing cycle at doses of 100 mg, 200 mg, 300 mg, and 400 mg BID.
# The most frequent compound of Formula I treatment-related AEs in the ongoing Phase 1 escalation study are dysgeusia or taste disorder (36%), decreased appetite (15%), fatigue (14%), nausea (12%), and anemia, constipation, diarrhea and decreased weight (10%) each.
# Overall, the safety profile of the compound of Formula I is considered manageable at the RP2D for combination with pembrolizumab.
# [5] = Particle size by laser diffraction (USP 42 <429>, Malvern Mastersizer 3000); type: physicochemical
# Excerpt: The compound of Formula I can be prepared in micronized and nonmicronized forms. In some embodiments, the compound of Formula I used in the dosage forms of the invention is micronized. The micronized drug substance can be prepared, for example, by jet milling. Particle size can be measured by laser diffraction methods (e.g., USP 42 <429> Light Diffraction Measurement of Particle Size). Nonmicronized compound can have a particle diameter size [d90] of about 30 μm or larger. In some embodiments, nonmicronized compound has a particle diameter size [d90] of about 30 to about 500 μm, about 50 to about 400 μm, about 100 to about 350 μm, or about 150 to about 300 μm.
# Micronized batches of the compound of Formula I were prepared by jet milling using a nitrogen gas feed. The nonmicronized starting material was prepared in a manner similar to the process for preparing crystalline compound of Formula I described in U.S. Pat. No. 10,550,105. Particle size was measured by laser diffraction according to USP 42 <429> using a Malvern Mastersizer 3000 equipped with a Hydro MV wet dispersion sample unit. Particle size diameters [d90] for two different lots were measured as 10.851 and 8.715 μm, respectively.
# [6] = NSCLC patients, second or third line, Keynote-010 (n=682)
# [7] = 100 mg capsule, micronized vs nonmicronized
# [8] = particle size d90:d50 18:5 μm (micronized)
# [9] = particle size d90:d50 228:108 μm (nonmicronized)
# [10] = patients, ongoing Phase 1 escalation study
compound,measurement,setting,value
"pembrolizumab: humanized antibody that binds to human PD-1, approved by the U.S. FDA",adverse reactions leading to discontinuation,[1]; [6],8%
same,pneumonitis leading to discontinuation (most common),[1]; [6],1.8%
same,"most frequent treatment-related AEs (fatigue, musculoskeletal pain, decreased appetite, pruritus, diarrhea, nausea, rash, pyrexia, cough, dyspnea, constipation, pain, abdominal pain), reported in",[1]; single agent (Merck 2021),> 20%
"C[C@@H](COCCC(=O)N1CCN(c2ncc(C(F)(F)F)cn2)CC1)Nc1cn[nH]c(=O)c1C(F)(F)F [compound of Formula I, 5-[[(2S)-1-(3-oxo-3-[4-[5-(trifluoromethyl)pyrimidin-2-yl]piperazin-1-yl]propoxy)propan-2-yl]amino]-4-(trifluoromethyl)-2,3-dihydropyridazin-3-one]","increase in mean AUC, micronized vs nonmicronized tablet",[2],about 1.5 fold
same,"increase in mean Cmax, micronized vs nonmicronized tablet",[2],about 2.4 fold
same,increase in AUC by micronization,[3]; [7],2.8 fold
same,increase in Cmax by micronization,[3]; [7],4.7 fold
same,"exposure, micronized capsules (Group E) versus nonmicronized capsules (Group D)",[3]; 100 mg/dog PO,much higher
same,oral exposure versus dose level,"[3]; Groups A, B and C, tablets 25, 50, 100 mg/dog","increased with the dose level, though not linear"
same,AUC,[3]; [8],9560 ng·h/mL
same,Cmax,[3]; [8],1670 ng/mL
same,AUC,[3]; [9],3400 ng·h/mL
same,Cmax,[3]; [9],356 ng/mL
same,safety profile / tolerability,"[4]; 50 patients, first-in-human Phase 1 trial",favorable safety profile; also recorded: well tolerated
same,treatment-related AE: anemia,[4]; [10],10%
same,treatment-related AE: constipation,[4]; [10],10%
same,treatment-related AE: decreased appetite,[4]; [10],15%
same,treatment-related AE: decreased weight,[4]; [10],10%
same,treatment-related AE: diarrhea,[4]; [10],10%
same,treatment-related AE: dysgeusia or taste disorder,[4]; [10],36%
same,treatment-related AE: fatigue,[4]; [10],14%
same,treatment-related AE: nausea,[4]; [10],12%
same,particle diameter size d[90],[5]; micronized compound (jet milled),10.851 μm and 8.715 μm
same,particle diameter size d[90],[5]; nonmicronized compound,228.474 μm
